# In PubChem BioAssay AID1259407 (Chemical Carcinogenesis Research Information System (CCRIS), 2018):
# Calls of active or inactive are those of the source. How the calls were made is not given here.
# Tested on: CCRIS mutagenicity, Ames/micronucleus/aberration tests
# Test: CCRIS mutagenicity studies
# [1] = Test System: AMES SALMONELLA TYPHIMURIUM, Strain/Indicator: TA100, Metabolic Activation: NONE, Method: PREINCUBATION
# [2] = Test System: AMES SALMONELLA TYPHIMURIUM, Strain/Indicator: TA100, Metabolic Activation: RAT, LIVER, S-9, Method: PREINCUBATION
# [3] = Test System: AMES SALMONELLA TYPHIMURIUM, Strain/Indicator: TA98, Metabolic Activation: NONE, Method: PREINCUBATION
compound,measurement,setting,value
CC(=O)OC(C)CN(CC(C)OC(C)=O)N=O (configuration not stated),mutagenic call,"Test System: AMES SALMONELLA TYPHIMURIUM, Strain/Indicator: TA100, Metabolic Activation: HAMSTER, LIVER, S-9, 3-METHYLCHOLANTHRENE, Method: PREINCUBATION",active; positive
same,mutagenic call,"Test System: AMES SALMONELLA TYPHIMURIUM, Strain/Indicator: TA100, Metabolic Activation: HAMSTER, LIVER, S-9, PHENOBARBITAL, Method: PREINCUBATION",active; positive
same,mutagenic call,"Test System: AMES SALMONELLA TYPHIMURIUM, Strain/Indicator: TA100, Metabolic Activation: HAMSTER, LIVER, S-9, Method: PREINCUBATION",active; positive
same,mutagenic call,"Test System: AMES SALMONELLA TYPHIMURIUM, Strain/Indicator: TA100, Metabolic Activation: HUMAN, LIVER, S-9, Method: PREINCUBATION",inactive; negative
same,mutagenic call,"Test System: AMES SALMONELLA TYPHIMURIUM, Strain/Indicator: TA100, Metabolic Activation: MONKEY, LIVER, S-9, Method: PREINCUBATION",active; positive
same,mutagenic call,"Test System: AMES SALMONELLA TYPHIMURIUM, Strain/Indicator: TA100, Metabolic Activation: MOUSE, LIVER, S-9, 3-METHYLCHOLANTHRENE, Method: PREINCUBATION",active; positive
same,mutagenic call,"Test System: AMES SALMONELLA TYPHIMURIUM, Strain/Indicator: TA100, Metabolic Activation: MOUSE, LIVER, S-9, PHENOBARBITAL, Method: PREINCUBATION",active; positive
same,mutagenic call,"Test System: AMES SALMONELLA TYPHIMURIUM, Strain/Indicator: TA100, Metabolic Activation: MOUSE, LIVER, S-9, Method: PREINCUBATION",active; positive
same,mutagenic call,[1],inactive; negative
same,mutagenic call,"Test System: AMES SALMONELLA TYPHIMURIUM, Strain/Indicator: TA100, Metabolic Activation: RABBIT, LIVER, S-9, Method: PREINCUBATION",active; positive
same,mutagenic call,"Test System: AMES SALMONELLA TYPHIMURIUM, Strain/Indicator: TA100, Metabolic Activation: RAT, LIVER, CYTOSOL, PCB, Method: PREINCUBATION",inactive; negative
same,mutagenic call,"Test System: AMES SALMONELLA TYPHIMURIUM, Strain/Indicator: TA100, Metabolic Activation: RAT, LIVER, MICROSOMES AND CYTOSOL, PCB, Method: PREINCUBATION",active; positive
same,mutagenic call,"Test System: AMES SALMONELLA TYPHIMURIUM, Strain/Indicator: TA100, Metabolic Activation: RAT, LIVER, MICROSOMES AND G6PDH, PCB, Method: PREINCUBATION",active; positive
same,mutagenic call,"Test System: AMES SALMONELLA TYPHIMURIUM, Strain/Indicator: TA100, Metabolic Activation: RAT, LIVER, MICROSOMES, PCB, Method: PREINCUBATION",active; positive
same,mutagenic call,"Test System: AMES SALMONELLA TYPHIMURIUM, Strain/Indicator: TA100, Metabolic Activation: RAT, LIVER, S-9 (HEATED), PCB, Method: PREINCUBATION",inactive; negative
same,mutagenic call,"Test System: AMES SALMONELLA TYPHIMURIUM, Strain/Indicator: TA100, Metabolic Activation: RAT, LIVER, S-9, 3-METHYLCHOLANTHRENE, Method: PREINCUBATION",active; positive
same,mutagenic call,"Test System: AMES SALMONELLA TYPHIMURIUM, Strain/Indicator: TA100, Metabolic Activation: RAT, LIVER, S-9, PCB, Method: PREINCUBATION",active; positive
same,mutagenic call,"Test System: AMES SALMONELLA TYPHIMURIUM, Strain/Indicator: TA100, Metabolic Activation: RAT, LIVER, S-9, PHENOBARBITAL, Method: PREINCUBATION",active; positive
same,mutagenic call,[2],active; positive
same,mutagenic call,"Test System: AMES SALMONELLA TYPHIMURIUM, Strain/Indicator: TA100, Metabolic Activation: RAT, LIVER, S-9 WITHOUT NADP+, PCB, Method: PREINCUBATION",inactive; negative
same,mutagenic call,"Test System: AMES SALMONELLA TYPHIMURIUM, Strain/Indicator: TA100, Method: PREINCUBATION",active; positive
same,mutagenic call,"Test System: CHINESE HAMSTER V-79, Strain/Indicator: V-79/OUABAIN, Metabolic Activation: HAMSTER, HEPATOCYTES, Method: CELL-MEDIATED",active; positive
CCOC(=O)c1[nH]c2ccccc2c1N=Cc1ccc(O)cc1,mutagenic call,"Test System: AMES SALMONELLA TYPHIMURIUM, Strain/Indicator: TA97, Metabolic Activation: NONE, Method: STANDARD PLATE",active; positive
same,mutagenic call,"Test System: AMES SALMONELLA TYPHIMURIUM, Strain/Indicator: TA97, Metabolic Activation: RAT, LIVER, S-9, AROCLOR 1254, Method: STANDARD PLATE",inactive; negative
same,mutagenic call,"Test System: AMES SALMONELLA TYPHIMURIUM, Strain/Indicator: TA98, Metabolic Activation: NONE, Method: STANDARD PLATE",inactive; negative
same,mutagenic call,"Test System: AMES SALMONELLA TYPHIMURIUM, Strain/Indicator: TA98, Metabolic Activation: RAT, LIVER, S-9, AROCLOR 1254, Method: STANDARD PLATE",inactive; negative
same,mutagenic call,"Test System: AMES SALMONELLA TYPHIMURIUM, Strain/Indicator: TA100, Metabolic Activation: NONE, Method: STANDARD PLATE",inactive; negative
same,mutagenic call,"Test System: AMES SALMONELLA TYPHIMURIUM, Strain/Indicator: TA100, Metabolic Activation: RAT, LIVER, S-9, AROCLOR 1254, Method: STANDARD PLATE",inactive; negative
same,mutagenic call,"Test System: AMES SALMONELLA TYPHIMURIUM, Strain/Indicator: TA102, Metabolic Activation: NONE, Method: STANDARD PLATE",inactive; negative
same,mutagenic call,"Test System: AMES SALMONELLA TYPHIMURIUM, Strain/Indicator: TA102, Metabolic Activation: RAT, LIVER, S-9, AROCLOR 1254, Method: STANDARD PLATE",inactive; negative
Cc1ccc(N)c(N)c1,mutagenic call,"Test System: AMES SALMONELLA TYPHIMURIUM, Strain/Indicator: TA97, Metabolic Activation: HAMSTER, LIVER, S-9, AROCLOR 1254 (10%), Method: PREINCUBATION",inactive; negative
same,mutagenic call,"Test System: AMES SALMONELLA TYPHIMURIUM, Strain/Indicator: TA97, Metabolic Activation: NONE, Method: PREINCUBATION",inactive; negative
same,mutagenic call,"Test System: AMES SALMONELLA TYPHIMURIUM, Strain/Indicator: TA97, Metabolic Activation: RAT, LIVER, S-9, AROCLOR 1254 (10%), Method: PREINCUBATION",active; positive
same,mutagenic call,"Test System: AMES SALMONELLA TYPHIMURIUM, Strain/Indicator: TA98, Metabolic Activation: HAMSTER, LIVER, S-9, AROCLOR 1254 (10%), Method: PREINCUBATION",active; positive
same,mutagenic call,[3],inactive; negative
same,mutagenic call,"Test System: AMES SALMONELLA TYPHIMURIUM, Strain/Indicator: TA98, Metabolic Activation: RAT, LIVER, S-9, AROCLOR 1254 (10%), Method: PREINCUBATION",active; positive
same,mutagenic call,"Test System: AMES SALMONELLA TYPHIMURIUM, Strain/Indicator: TA100, Metabolic Activation: HAMSTER, LIVER, S-9, AROCLOR 1254 (10%), Method: PREINCUBATION",active; positive
same,mutagenic call,[1],inactive; negative
same,mutagenic call,"Test System: AMES SALMONELLA TYPHIMURIUM, Strain/Indicator: TA100, Metabolic Activation: RAT, LIVER, S-9, AROCLOR 1254 (10%), Method: PREINCUBATION",active; positive
same,mutagenic call,"Test System: AMES SALMONELLA TYPHIMURIUM, Strain/Indicator: TA1535, Metabolic Activation: HAMSTER, LIVER, S-9, AROCLOR 1254 (10%), Method: PREINCUBATION",inactive; negative
same,mutagenic call,"Test System: AMES SALMONELLA TYPHIMURIUM, Strain/Indicator: TA1535, Metabolic Activation: NONE, Method: PREINCUBATION",inactive; negative
same,mutagenic call,"Test System: AMES SALMONELLA TYPHIMURIUM, Strain/Indicator: TA1535, Metabolic Activation: RAT, LIVER, S-9, AROCLOR 1254 (10%), Method: PREINCUBATION",inactive; negative
C=CC(C)=O,mutagenic call,"Test System: AMES SALMONELLA TYPHIMURIUM, Strain/Indicator: TA98, Metabolic Activation: HAMSTER, LIVER, S-9, AROCLOR 1254 (30%), Method: PREINCUBATION",inactive; negative
same,mutagenic call,[3],inactive; negative
same,mutagenic call,"Test System: AMES SALMONELLA TYPHIMURIUM, Strain/Indicator: TA98, Metabolic Activation: RAT, LIVER, S-9, AROCLOR 1254 (30%), Method: PREINCUBATION",inactive; negative
same,mutagenic call,"Test System: AMES SALMONELLA TYPHIMURIUM, Strain/Indicator: TA100, Metabolic Activation: HAMSTER, LIVER, S-9, AROCLOR 1254 (30%), Method: PREINCUBATION",active; positive
same,mutagenic call,"Test System: AMES SALMONELLA TYPHIMURIUM, Strain/Indicator: TA100, Metabolic Activation: RAT, LIVER, S-9, AROCLOR 1254 (30%), Method: PREINCUBATION",inactive; negative
same,mutagenic call,[2],active; positive
same,mutagenic call,"Test System: AMES SALMONELLA TYPHIMURIUM, Strain/Indicator: TA102, Metabolic Activation: S-9, Method: STANDARD PLATE",inactive; negative
same,mutagenic call,"Test System: AMES SALMONELLA TYPHIMURIUM, Strain/Indicator: TA2638, Metabolic Activation: S-9, Method: STANDARD PLATE",active; positive
same,mutagenic call,"Test System: E. COLI, Strain/Indicator: WP2 (PKM101), Metabolic Activation: S-9, Method: STANDARD PLATE",active; positive
same,mutagenic call,"Test System: E. COLI, Strain/Indicator: WP2 UVRA (PKM101), Metabolic Activation: S-9, Method: STANDARD PLATE",active; positive
